In patent US12403118B1, “Cancer treatments using modified fatty acids and the carriers to administer them” (Zetagen Therapeutics, Inc., priority 2025, dated 2025):
Blank lines part the entries; values can stand above or below the molecule they belong to.

Experiments:
MCF7 breast cancer cells = assay: MTT assay of cell proliferation; type: cell-based; conditions: relative to no treatment
Description: The MTT Assay of Cell Proliferation: The MTT assay provides a measurement of cell proliferation (FIG. 5) in the MCF7 breast cancer cells. […] Experiments were conducted using three independent replicates and evaluated using a 1-way ANOVA. Relative to Controls at 24-hours (FIG. 5A), there was between a 6.9% and 11.94% decrease in cell number (**=p<0.0034, ***=p<0.0007, and ****=p<0.0001). Relative to Control cultures at 72-hours (FIG. 5B), there was between a 15.4% and 50.2% decrease in cell number (****=p<0.0001).
Combination Therapy Assessed Using the MTT Assay of Cell Proliferation: The MTT assay provides a measurement of cell proliferation (FIG. 5) in the MCF7 breast cancer cells. […] Control cultures were treated with 50-nM of Tomoxifen or 10-nM of Abemaciclib.

Phosphoglycerate kinase = conditions: substrate Mg-ATP; cited from earlier work
[1] = Solubility in heated non-polar solvents and fatty acid solutions; type: physicochemical; conditions: heated to at least 90° C.; for solubility in fatty acid solutions: oleic acid, linoleic acid, vegetable oil, olive oil, canola oil, castor oil; for solubility in non-polar solvents: toluene, xylene, n-octane, cyclohexane, hexane, chloroform, acetonitrile, ether
TRPA1 channels = TRPA1 channels (Homo sapiens, UniProt O75762); conditions: 20-μM Ca^2+; cited from earlier work
Chain of TRPA1 channels (O75762 whole entry): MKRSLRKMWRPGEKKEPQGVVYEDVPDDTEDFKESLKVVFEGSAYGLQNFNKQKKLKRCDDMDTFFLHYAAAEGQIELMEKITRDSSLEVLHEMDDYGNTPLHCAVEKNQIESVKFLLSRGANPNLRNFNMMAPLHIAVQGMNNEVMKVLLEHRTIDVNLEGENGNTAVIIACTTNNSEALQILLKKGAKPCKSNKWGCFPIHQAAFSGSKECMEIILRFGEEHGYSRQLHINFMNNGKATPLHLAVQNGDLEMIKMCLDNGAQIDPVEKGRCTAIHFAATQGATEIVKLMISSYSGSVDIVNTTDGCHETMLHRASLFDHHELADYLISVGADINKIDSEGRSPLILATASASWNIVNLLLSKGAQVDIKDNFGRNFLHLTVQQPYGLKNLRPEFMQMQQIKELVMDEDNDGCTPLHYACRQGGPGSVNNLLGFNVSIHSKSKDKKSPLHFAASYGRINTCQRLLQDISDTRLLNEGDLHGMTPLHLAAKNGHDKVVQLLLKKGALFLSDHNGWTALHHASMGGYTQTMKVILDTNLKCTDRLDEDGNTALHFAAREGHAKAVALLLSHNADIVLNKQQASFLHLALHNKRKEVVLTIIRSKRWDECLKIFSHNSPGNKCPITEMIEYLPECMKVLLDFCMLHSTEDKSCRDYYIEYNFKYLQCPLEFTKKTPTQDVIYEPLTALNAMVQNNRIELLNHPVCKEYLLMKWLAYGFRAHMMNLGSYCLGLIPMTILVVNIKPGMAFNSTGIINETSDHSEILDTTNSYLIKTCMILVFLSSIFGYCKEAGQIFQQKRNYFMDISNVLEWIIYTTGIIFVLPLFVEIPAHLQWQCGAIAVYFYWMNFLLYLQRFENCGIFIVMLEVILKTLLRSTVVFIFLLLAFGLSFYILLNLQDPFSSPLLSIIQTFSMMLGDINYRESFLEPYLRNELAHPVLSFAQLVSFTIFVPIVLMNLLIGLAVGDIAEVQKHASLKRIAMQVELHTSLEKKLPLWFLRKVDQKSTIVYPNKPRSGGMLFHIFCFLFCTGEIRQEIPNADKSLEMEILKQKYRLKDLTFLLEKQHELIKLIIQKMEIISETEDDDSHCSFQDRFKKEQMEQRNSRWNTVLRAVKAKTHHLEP

Compound: CCN1CCN(Cc2ccc(Nc3ncc(F)c(-c4cc(F)c5nc(C)n(C(C)C)c5c4)n3)nc2)CC1 [Abemaciclib]
decrease in cell number (MCF7 breast cancer cells; MCF7, 24-hours, 10-nM Abemaciclib): 10.2% | decrease in cell number (MCF7 breast cancer cells; MCF7, 72-hours, 10-nM Abemaciclib): 26.4%

Compound: Nc1ncnc2c1ncn2[C@@H]1O[C@H](COP(=O)(O)OP(=O)([O-])OP(=O)([O-])O)[C@@H](O)[C@H]1O.[Mg+2] [Mg-ATP]
K-value (Phosphoglycerate kinase): 0.073 mM

Compound: CC/C(=C(\c1ccccc1)c1ccc(OCCN(C)C)cc1)c1ccccc1 [Tamoxifen]
decrease in cell number (MCF7 breast cancer cells; MCF7, 24-hours, 50-nM Tamoxifen): 54% | decrease in cell number (MCF7 breast cancer cells; MCF7, 72-hours, 50-nM Tamoxifen): 80.3%

Compound: CCCCCCCCC(OC(C)=O)C(CCCCCCCC(=O)O)OC(C)=O (stereo not shown) [lanthanum (III) tri 9,10-diacetoxy octadecanoate]
solubility in fatty acid solutions [1]: soluble | solubility in non-polar solvents [1]: soluble

solubility in fatty acid solutions [1]: soluble | solubility in non-polar solvents [1]: soluble
Compound: CCCCCCCCCCCC(=O)O [lanthanum (III) tridodeconoate]

Compound: [La] [lanthanum]
IC50 (TRPA1 channels): 54 µM
